Converted amounts (≈) assume the structure as drawn. “And” between values parts separate entries of the source, which are not always exact repeats. Identical values can stand only once. Blank lines part the entries; values can stand above or below the compound they belong to. Positions of bridges follow the written chain, without caps; N, C: chain ends. Non-standard residues stand in square brackets, D forms with d. Residues, ends and D or L forms follow the SMILES beside them. Chains are numbered I, II in the order given. *: point of attachment. 5FAM = O=C1OC2(c3ccc(O)cc3Oc3cc(O)ccc32)c2ccc(C(=O)*)cc21; hPhe = N[C@@H](CCc1ccccc1)C(=O)O; Ahx = NCCCCCC(=O)O
Legend:
Assay type in all cases: cell-based
[1] = system: E. coli ATCC 25922; details: ATCC 25922, 24 h
Procedure: (§1) The minimum inhibitory concentration (MIC) of the peptides was determined by the broth microdilution technique, according to the Clinical and Laboratory Standards Institute (CLSI) guidelines, as previously described. Briefly, bacterial strains were incubated in BHI broth at 37 °C until they reached the exponential growth phase, and inocula were adjusted to 5 × 10^6 CFU/mL using calibration curves. Serial dilutions of the peptides to be evaluated in 96-well plates were made in 90 µL of Mueller Hinton broth at concentrations ranging from 200 to 6.25 µg/mL, and 10 µL of the inoculum adjusted to 5 × 10^6 CFU/mL was added. Finally, the plates were incubated at 37 °C for 24 h, and the absorbance at 620 nm was read. As a negative control, CMH, distilled water, and 10 µL of inoculum were used; for the positive control, vancomycin was used for Gram-positive strains and ciprofloxacin for Gram-negative strains at the MICs dictated by the CLSI; as a technical control, CMH with peptone water was used, and for the growth control, CMH was used with 10 µL of inoculum.
(§2) To determine the minimum bactericidal concentration (MBC), the 96-well plates where the MIC was determined were used as a starting point. From these, an aliquot of the controls and those wells where no apparent bacterial growth was observed were spotted onto trypticase soy agar plates. The plates were incubated at 37 °C for 24 h, and the reading was taken, identifying the lowest concentration of the peptide where there was no bacterial growth as the MBC.

[2] = system: E. faecalis ATCC 29212; details: ATCC 29212, 24 h
Procedure: as §1, §2

[3] = system: K. pneumoniae ATCC 700603; details: ATCC 700603, 24 h
Procedure: as §1, §2

[4] = system: P. aeruginosa ATCC 27853; details: ATCC 27853, 24 h
Procedure: as §1, §2

[5] = system: S. aureus ATCC 25923; details: ATCC 25923, 24 h
Procedure: as §1, §2

[6] = system: S. aureus clinical isolate 11719; details: clinical isolate 11719, 24 h
[7] = system: E. coli clinical isolate 1004 (susceptible); details: clinical isolate 1004 (susceptible, 24 h)
Procedure: (§3) E. coli isolates 1004 (susceptible), 129797 (resistant), and 301755 (MDR) were selected for evaluation. Isolate 1004 was sensitive to all antibiotics tested. […] These findings identify it as a multidrug-resistant (MDR) strain and an extended-spectrum beta-lactamase (ESBL)-producing bacterium. For S. aureus, isolates 109095, 117719, and 124653 were evaluated. All three were resistant to penicillin, indicating beta-lactamase production mediated by the blaZ gene. Studies have shown that up to 90% of S. aureus isolates worldwide are penicillin-resistant, which implies that this antibiotic is ineffective in infections caused by this pathogen. […] Isolate 124653 was resistant to penicillin, tetracycline, and erythromycin, with the latter belonging to the group of macrolides, antibiotics that inhibit protein synthesis through interaction with the 50S […] subunit. For E. faecalis three isolates were selected: strains 213 (sensitive to all the antibiotics tested), strain 82 (resistant to streptomycin), and strain 179 (resistant to gentamicin). These clinical isolates were selected to assess the antimicrobial activity of the peptide RWQWRWQWR and its analogues conjugated to fluorescent molecules in strains against strains with susceptibility profiles.
(§4) The analysis of synthesized peptides in ATCC reference strains and susceptible, resistant, and multidrug-resistant (MDR) clinical isolates was performed. The clinical isolates were obtained from the National Cancer Institute collection and were previously identified and antibiogrammed using the VITEK system. Additionally, the strains were characterized by MALDI-TOF. The strains were re-primed onto trypticase soy agar and subsequently preserved in Brain–Heart Infusion (BHI) broth containing 20% glycerol. For the MIC and MBC assays, the strains were reactivated and cultured in BHI until they reached their exponential growth phase.
as §1, §2

[8] = system: E. coli clinical isolate 129797 (resistant); details: clinical isolate 129797 (resistant, 24 h)
Procedure: as §3, §4, §1, §2

[9] = system: E. coli clinical isolate 301755 (MDR); details: clinical isolate 301755 (MDR, 24 h)
Procedure: as §3, §4, §1, §2

[10] = system: E. faecalis clinical isolate 179; details: clinical isolate 179, 24 h
Procedure: as §3, §4, §1, §2

[11] = system: E. faecalis clinical isolate 213; details: clinical isolate 213, 24 h
Procedure: as §3, §4, §1, §2

[12] = system: E. faecalis clinical isolate 82; details: clinical isolate 82, 24 h
Procedure: as §3, §4, §1, §2

[13] = system: S. aureus clinical isolate 109095; details: clinical isolate 109095, 24 h
Procedure: as §3, §4, §1, §2

[14] = system: S. aureus clinical isolate 124653; details: clinical isolate 124653, 24 h
Procedure: as §3, §4, §1, §2

[15] = MTT cytotoxicity assay in HeLa cells; details: human
Procedure: MTT assays were conducted in HeLa cells to evaluate the effect of fluorescent probe incorporation on the in vitro cytotoxic activity of the parent non-conjugated peptides. The cytotoxic effect of peptides 1, Abz-1 RhB-1, 2, and RhB-2 in HeLa cells was peptide concentration-dependent, with the highest anticancer activity observed at 200 µg/mL. Incorporation of 2-Abz and RhB at the N-terminal end reduced cytotoxic activity, while the binding of 2-Abz at the C-terminal end or FAM at the N-terminal end drastically diminished anticancer activity (Table 4).

[16] = Hemolysis assay; details: Percentage of hemolysis
Procedure: (§5) Whole blood was collected into EDTA tubes and centrifuged at 2500 rpm for 10 min. The plasma and buffy coat were removed, and the erythrocytes were washed three times with 0.9% saline to yield a 4% cell suspension. In 96-well plates, 100 µL of peptide dilutions (6.25–200 µg/mL) were prepared in triplicate, and 100 µL of the erythrocyte suspension was added (final hematocrit 2%). Plates were incubated at 37 °C for 2 h, and then centrifuged again at 2500 rpm for 10 min. A 100 µL aliquot of the supernatant was transferred to a fresh plate, and absorbance was measured at 450 nm. Saline and 1× Triton X-100 served as the negative and positive controls, respectively. Hemolysis (%) was calculated as follows: %hemolysis=treatment absorbance−saline absorbance/1×triton absorbance−saline absorbance

[17] = system: erythrocytes; assay: Hemolysis assay; details: 2 h
Procedure: as §5

Minimal inhibitory concentration (MIC) [1]: 108 µM (≈ 199 µg/mL)
Minimal inhibitory concentration (MIC) [2]: 54 µM (≈ 99.6 µg/mL)
Minimal inhibitory concentration (MIC) [3]: > 108 µM
Minimal inhibitory concentration (MIC) [4]: > 108 µM
Minimal inhibitory concentration (MIC) [5]: 108 µM (≈ 199 µg/mL)
Minimal inhibitory concentration (MIC) [6]: > 108 µM
Minimal inhibitory concentration (MIC) [7]: 108 µM (≈ 199 µg/mL)
Minimal inhibitory concentration (MIC) [8]: > 108 µM
Minimal inhibitory concentration (MIC) [9]: 108 µM (≈ 199 µg/mL)
Minimal inhibitory concentration (MIC) [10]: > 108 µM
Minimal inhibitory concentration (MIC) [11]: 108 µM (≈ 199 µg/mL)
Minimal inhibitory concentration (MIC) [12]: 54 µM (≈ 99.6 µg/mL)
Minimal inhibitory concentration (MIC) [13]: > 108 µM
Minimal inhibitory concentration (MIC) [14]: > 108 µM
Compound: N=C(N)NCCC[C@H](NC(=O)[C@H](Cc1c[nH]c2ccccc12)NC(=O)[C@H](CCC(N)=O)NC(=O)[C@H](Cc1c[nH]c2ccccc12)NC(=O)[C@H](CCCNC(=N)N)NC(=O)[C@H](Cc1c[nH]c2ccccc12)NC(=O)[C@H](CCC(N)=O)NC(=O)[C@H](Cc1c[nH]c2ccccc12)NC(=O)[C@H](CCCNC(=N)N)NC(=O)c1ccc2c(c1)C(=O)OC21c2ccc(O)cc2Oc2cc(O)ccc21)C(N)=O [FAM-1, FAM-RWQWRWQWR] (5FAM-RWQWRWQWR-NH2)
Minimal bactericidal concentration (MBC) [1]: > 108 µM
Minimal bactericidal concentration (MBC) [2]: > 108 µM
Minimal bactericidal concentration (MBC) [3]: > 108 µM
Minimal bactericidal concentration (MBC) [4]: > 108 µM
Minimal bactericidal concentration (MBC) [5]: > 108 µM
Minimal bactericidal concentration (MBC) [6]: > 108 µM
Minimal bactericidal concentration (MBC) [7]: > 108 µM
Minimal bactericidal concentration (MBC) [8]: > 108 µM
Minimal bactericidal concentration (MBC) [9]: > 108 µM
Minimal bactericidal concentration (MBC) [10]: > 108 µM
Minimal bactericidal concentration (MBC) [11]: > 108 µM
Minimal bactericidal concentration (MBC) [12]: > 108 µM
Minimal bactericidal concentration (MBC) [13]: > 108 µM
Minimal bactericidal concentration (MBC) [14]: > 108 µM
IC50 [15]: > 200 µg/mL and > 108 µM
hemolysis at 2 h [16]: 17%
Therapeutic index [17]: 0.25

Compound: CC(C)C[C@H](NC(=O)[C@H](CCCCN)NC(=O)[C@H](CCCCN)NC(=O)[C@H](CCc1ccccc1)NC(=O)[C@H](CCCNC(=N)N)NC(=O)[C@H](Cc1c[nH]c2ccccc12)NC(=O)[C@H](CCC(N)=O)NC(=O)[C@H](Cc1c[nH]c2ccccc12)NC(=O)[C@H](CCCNC(=N)N)NC(=O)[C@@H](N)CCCNC(=N)N)C(=O)NCC(=O)NCCCC[C@H](NC(=O)CNC(=O)[C@H](CC(C)C)NC(=O)[C@H](CCCCN)NC(=O)[C@H](CCCCN)NC(=O)[C@H](CCc1ccccc1)NC(=O)[C@H](CCCNC(=N)N)NC(=O)[C@H](Cc1c[nH]c2ccccc12)NC(=O)[C@H](CCC(N)=O)NC(=O)[C@H](Cc1c[nH]c2ccccc12)NC(=O)[C@H](CCCNC(=N)N)NC(=O)[C@@H](N)CCCNC(=N)N)C(=O)NCCCCCC(N)=O [peptide 2, (RRWQWR-hF-KKLG)2K-Ahx] (I: H-RRWQWR[hPhe]KKLGK[Ahx]-NH2 / II: H-RRWQWR[hPhe]KKLG; amide I:12-II:C; N-terminus assumed)
IC50 [15]: 109 µg/mL and 32 µM

— article PMC12383145, “Fluorescent Peptides Internalize HeLa Cells and Kill Multidrug-Resistant Clinical Bacterial Isolates” (Antibiotics, 2025)
